Reference: PMC5618561 (International Journal of Molecular Sciences, 2017)
Like-named read-outs stand apart in the source and are kept apart here.

Assays:
[1] = tested on: SWV/Finn mice; settings: cited from earlier work
[2] = tested on: 2-oxoglutarate oxidation of isolated rat liver mitochondria; assay: ADP-stimulated 2-oxoglutarate oxidation of rat liver mitochondria; assay type: biochemical; settings: 3 min preincubation with 1 mM ATP, 5 mM MgCl2, 10 mM 2-oxoglutarate, 1 mM ADP, read-out: Apparent IC50 of inhibition of 2-oxoglutarate oxidation
[3] = tested on: pyruvate oxidation of isolated rat liver mitochondria; assay: ADP-stimulated pyruvate oxidation of isolated rat liver mitochondria (high-resolution respirometry); assay type: biochemical
[4] = tested on: glutamate oxidation of isolated rat liver mitochondria; assay: ADP-stimulated glutamate (+ malate) oxidation of rat liver mitochondria; assay type: biochemical; settings: 3 min preincubation with 1 mM ATP, 5 mM MgCl2, 10 mM glutamate, 5 mM malate, 1 mM ADP, read-out: Apparent IC50 of inhibition of glutamate oxidation
[5] = target: T1, α-lipoamide dehydrogenase (Rattus norvegicus, UniProt Q6P6R2); assay: α-lipoamide dehydrogenase activity in intact mitochondria (re-reduction of NAD(P)+ after α-lipoamide, NAD(P)H fluorescence); assay type: biochemical; settings: for IC50: read-out: Apparent IC50 of inhibition of α-lipoamide dehydrogenase; for inhibition of α-lipoamide dehydrogenase (in words): rat liver mitochondria, abstract summary
T1 construct: After 3 min incubation of rat liver mitochondria (0.3 mg protein/mL) in MTP medium; from tissue; host or cells: liver mitochondria of Wistar rat
T1 sequence (Q6P6R2 36-509): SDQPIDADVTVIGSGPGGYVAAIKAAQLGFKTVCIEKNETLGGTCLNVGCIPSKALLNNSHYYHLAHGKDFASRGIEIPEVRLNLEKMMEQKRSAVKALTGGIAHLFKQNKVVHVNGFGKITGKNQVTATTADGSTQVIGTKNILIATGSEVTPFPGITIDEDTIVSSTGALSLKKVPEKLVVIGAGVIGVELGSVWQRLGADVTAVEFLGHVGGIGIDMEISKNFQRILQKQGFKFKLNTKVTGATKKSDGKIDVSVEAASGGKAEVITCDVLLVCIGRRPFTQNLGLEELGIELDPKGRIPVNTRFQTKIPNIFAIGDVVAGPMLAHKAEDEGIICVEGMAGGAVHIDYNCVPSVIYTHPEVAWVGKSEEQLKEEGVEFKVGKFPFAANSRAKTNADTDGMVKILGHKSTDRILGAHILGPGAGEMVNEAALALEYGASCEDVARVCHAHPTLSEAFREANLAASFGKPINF

[6] = tested on: epilepsy model; settings: racemate; dependent on the epilepsy model; cited from earlier work
[7] = cited from earlier work
[8] = tested on: pilocarpine-induced status epilepticus (SE); settings: cited from earlier work; for protection against pilocarpine-induced status epilepticus: rat
[9] = patients with epilepsy; cited from earlier work
[10] = target: T2, pyruvate dehydrogenase (Rattus norvegicus, UniProt P26284+P49432); assay: pyruvate dehydrogenase (PDH) activity of isolated rat liver mitochondria; assay type: biochemical; settings: preincubation with 10 mM VPA and 1 mM ATP; excess α-lipoamide dehydrogenase
T2 construct: the mitochondrial suspension (0.3 mg protein) was placed into a 0.5 mL spectrophotometric cuvette; from tissue; host or cells: liver mitochondria of Wistar rat, solubilised with 0.1% N-dodecyl-β-D-maltoside
T2 sequence (P26284 30-390): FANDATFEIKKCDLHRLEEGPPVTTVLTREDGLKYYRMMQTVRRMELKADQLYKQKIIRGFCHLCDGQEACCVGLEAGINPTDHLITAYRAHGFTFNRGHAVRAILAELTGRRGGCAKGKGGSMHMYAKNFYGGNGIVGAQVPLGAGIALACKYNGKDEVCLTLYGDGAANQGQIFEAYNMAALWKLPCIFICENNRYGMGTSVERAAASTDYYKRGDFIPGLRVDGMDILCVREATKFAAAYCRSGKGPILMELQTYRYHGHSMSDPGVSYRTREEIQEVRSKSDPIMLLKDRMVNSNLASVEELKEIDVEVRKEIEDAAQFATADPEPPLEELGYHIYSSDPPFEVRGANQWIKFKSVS
T2 sequence (P49432 31-359): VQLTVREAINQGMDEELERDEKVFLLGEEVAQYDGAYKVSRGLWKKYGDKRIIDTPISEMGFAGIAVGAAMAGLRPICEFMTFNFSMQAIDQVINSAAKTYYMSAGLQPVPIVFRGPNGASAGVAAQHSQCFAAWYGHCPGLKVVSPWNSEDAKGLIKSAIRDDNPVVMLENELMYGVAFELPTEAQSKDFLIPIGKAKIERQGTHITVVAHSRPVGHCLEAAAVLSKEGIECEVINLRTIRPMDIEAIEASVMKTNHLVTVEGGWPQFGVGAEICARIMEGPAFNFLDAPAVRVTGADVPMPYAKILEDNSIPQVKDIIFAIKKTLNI
Procedure: (§1) (A) The plotted pyruvate dehydrogenase (PDH) activities are averages of three independent experiments; (B) Swelling of mitochondria in 0.1 M ammonium pyruvate buffer. One representative experiment (out of 3) is shown. […] Experimental conditions as described in Materials and Methods.
PDH activity in this suspension was determined according to Scislowski and Davis with the following modifications: the mitochondrial suspension (0.3 mg protein) was placed into a 0.5 mL spectrophotometric cuvette, containing 0.1 M potassium phosphate buffer (pH 7.4), 5 mM MgCl2, 3 mM NAD^+, 0.1 mM CoASH, 2 mM dithiothreitol, 0.1% N-dodecyl-β-D-maltoside, 0.4 mM thiamine pyrophosphate, 20 µg/mL diaphorase (Boehringer Mannheim, Mannheim, Germany), and 10 mM pyruvate. PDH activity was measured at 30 °C using a spectrophotometer (Aminco DW 2000, SLM Instruments, Urbana, IL, USA) with 340–380 nm dual wavelength photometry.

[11] = tested on: pyruvate transport of rat liver mitochondria; assay: pyruvate transport: pyruvate-dependent swelling of mitochondria in ammonium pyruvate; assay type: biochemical; settings: 1 mM compound; rat liver mitochondria in 0.1 M ammonium pyruvate
Procedure: as §1
For pyruvate transport determinations, the mitochondrial suspension (0.6–0.7 mg protein) was placed into a 3 mL spectrophotometric cuvette, containing 5 mM MgCl2, 2 µM rotenone, 1.5 µg/mL antimycin, and 0.1 M ammonium pyruvate (obtained from ammonium hydroxide and pyruvic acid). When indicated, 1 mM cinnamate was added. Mitochondrial swelling was estimated at 30 °C using a spectrophotometer (Aminco DW 2000, SLM Instruments) at 546 nm.

[12] = SWV/Finn mice, strain highly susceptible to VPA-induced teratogenicity
[13] = isolated rat liver mitochondria, 3 min preincubation with drug, 1 mM ATP, 5 mM MgCl2, 10 mM pyruvate, 5 mM malate, ADP, read-out: Apparent IC50 of inhibition of pyruvate oxidation
[14] = isolated rat liver mitochondria, pyruvate-dependent reduction of NAD(P)+, estimated value

| Compound | teratogenic effects [1, 12] | IC50 [2] [µM] | IC50 [3, 13] [µM] | IC50 [4] [µM] | inhibition of α-lipoamide dehydrogenase (in words) [5] | also measured |
| --- | --- | --- | --- | --- | --- | --- |
| CC[C@H](C)[C@@H](CC)C(N)=O [(2R,3S)-VCD] | did not show any significant teratogenic effects | – | – | – | – | – |
| CC[C@H](C(N)=O)[C@@H](C)CC [(2S,3S)-VCD] | did not show any significant teratogenic effects | – | – | – | – | – |
| CCCC(C(=O)O)C(C)CC (stereo not drawn) [SPA, sec-Butylpropylacetic acid] | – | 50 | 50 | 2000 | Strong inhibition | IC50 ([5]; […], pyruvate-dependent reduction of NAD(P)+ after 75 µM α-lipoamide, preincubation with 1 mM ATP): 100 µM |
| CCCC(C(N)=O)C(C)CC (stereo not drawn) [SPD, sec-Butylpropylacetamide] | – | 1000 | 3000 | 2000 | only small effects | IC50 ([5]; […], pyruvate-dependent reduction of NAD(P)+, estimated value): > 1000 µM |
| CCC(C)C(CC)C(N)=O (stereo not drawn) [VCD, Valnoctamide] | did not show any significant teratogenic effects | – | – | – | only small effects | anticonvulsant activity: concentrations lower than VPA [6]: 2–16 times; biotransformation to the corresponding acid ([7]; in vivo): low biotransformation; block of pilocarpine-induced electrographic SE ([8]; 180 mg/kg): did block; protection against pilocarpine-induced status epilepticus ([8]; 65 mg/kg intraperitoneally at seizure onset): protected; protection against pilocarpine-induced status epilepticus ([8]; 80 mg/kg 30 min after seizure onset): protection was lost; IC50 [5, 14]: > 1000 µM |
| CCCC(CCC)C(=O)O [VPA, Valproic acid] | – | 50 | 50 | 10000 | strongly inhibited | IC50 ([3]; isolated rat liver mitochondria, 3 min preincubation with drug, 1 mM ATP, 5 mM MgCl2, 10 mM pyruvate, 5 mM malate, ADP, listed as valproic acid, read-out: Apparent IC50 of inhibition of pyruvate oxidation): ~50 µM; therapeutic blood levels [9]: 40 to 100 mg/L; effect on pyruvate dehydrogenation velocity (PDH activity) [10]: slight increase; effect on pyruvate-dependent swelling velocity (pyruvate transport) [11]: no effect; pyruvate-dependent re-reduction of NAD(P)+ after α-lipoamide ([5]; 0.5 and 1 mM VPA): strongly inhibited; glutamate-dependent re-reduction of NAD(P)+ after α-lipoamide ([5]; glutamate as substrate): no effects; IC50 ([5]; isolated rat liver mitochondria, pyruvate-dependent reduction of NAD(P)+ after 75 µM α-lipoamide, preincubation with 1 mM ATP): 80 µM |
| CCCC(CCC)C(N)=O [VPD, Valpromide] | – | 8000 | 5000 | 3000 | only small effects | biotransformation to the corresponding acid ([7]; humans): rapid transformation to VPA; IC50 [5, 14]: > 1000 µM |
| O=[As][O-].[Na+] [arsenite] | – | – | – | – | – | inhibition of DLDH activity [5]: complete inhibition |
| O=C(O)/C=C/c1ccccc1 [cinnamate] | – | – | – | – | – | effect on pyruvate-dependent swelling velocity (pyruvate transport) [11]: clearly inhibited |
| Valnoctic acid [VCA] | – | 200 | 900 | 2000 | – | IC50 ([3]; both substrates summarised together, preincubated in the presence of ATP, read-out: IC50 of inhibition of pyruvate and 2-oxoglutarate oxidation rates of liver mitochondria): 200 to 900 µM; teratogenic effects ([1]; mouse, in vivo): did not show any significant teratogenic effects; IC50 [5]: 300 µM |
